Measured values taken from patent US20260266837A1, “Methods for Cancer Recurrence Detection and Treatment Thereof” (Institut Curie, priority 2022, published 2026).
Values belong to the compound of their own block, whether it stands above or below them.

Experiments:
[1] = test system: MDA-MB-468 untreated and chemoresistant cells; test: XTT cell cytotoxicity, IC50 to 5-FU; format: cell-based, human; details: resistant cells after over 15 weeks of 5-FU, 72 h XTT
Protocol: MDA-MB-468 untreated and chemoresistant cells were plated in 96 multi-well plates at a density of 10,000 cells per well and treated with increased concentration of 5-FU (1 μM to 0.5M) for 72 h. Cell cytotoxicity was assayed with XTT kit (Sigma, Ref: 11465015001) and IC 50 was calculated as the concentration of 5-FU that is required to obtain 50% of cell viability (Extended FIG. 2b).

[2] = test system: MDA-MB-468; test: Prolonged 5-FU treatment, cell proliferation and survival; format: cell-based, human
Protocol: (§1) Cell lines, culture conditions and drug treatments. MDA-MB-468 cells were cultured in DMEM (Gibco-BRL, Ref: 11966025), supplemented with 10% heat-inactivated fetal calf serum (Gibco-BRL, Ref: 10270-106). HCC38 and BT20 cell lines were cultured in RPMI 1640 (Gibco-BRL, Ref: 11875085), supplemented with 10% heat-inactivated fetal calf serum. […] Cells were treated with 5 μM of 5-FU (Sigma, Ref: F6627) alone or in combination with KDM6A/Bi or EZH2i for indicated days. For EZH2i, cells were pretreated with UNC 1999, UNC 2400 or GSK 126 for 10 days before the addition of 5-FU for an additional 21 days (FIG. 4 and Extended FIG. 8).

[3] = test system: patient-derived xenograft (PDX) models PDX_95, PDX_39 & PDX_172 established from patients with residual TNBC; test: Capecitabine treatment of TNBC patient-derived xenograft models; format: in vivo, mice; details: oral Capecitabine
Description: Patient samples and PDX models. Patient samples used in this study (n=9) originated from patient treated at Institut Curie with residual triple-negative breast cancers post-neoadjuvant chemotherapy, who gave informed consent for the profiling. In this study, we used three xenograft models generated from three different residual triple-negative breast cancers post-neoadjuvant chemotherapy (HBCx95 called PDX_95, HBCx39 called PDX_39 and HBCx172 called PDX_172 in the manuscript, see Extended Table2) established previously at Curie Institute with informed consent from the patient^46,47. Female Swiss nude mice were purchased from Charles River Laboratories and maintained under specific-pathogen-free conditions. Mouse care and housing were in accordance with institutional guidelines and the rules of the French Ethics Committee (project authorization no. 02163.02).
FIG. 1b: Five mice were not treated and kept as controls (termed “untreated”) and twenty-seven mice were treated orally with Capecitabine (Xeloda; Roche Laboratories) at a dose of 540 mg/kg, 5 d/week for 6 to 14 weeks. Relative tumor volumes (mm3) were measured as described previously^18. Eight mice were sacrificed after the first round of chemotherapy to study “residual” tumors (2 mice) or “persister” (6 mice) human tumor cells. […]

[4] = target: T1, H3K27me3, EZH2 (Homo sapiens, UniProt Q15910); test: Western blotting of EZH2i-treated cells; format: cell-based; details: prior to chemotherapy treatment
T1 construct: endogenous in cells; host or cells: MDA-MB-468, HCC38 or BT20
T1 sequence (Q15910 whole entry): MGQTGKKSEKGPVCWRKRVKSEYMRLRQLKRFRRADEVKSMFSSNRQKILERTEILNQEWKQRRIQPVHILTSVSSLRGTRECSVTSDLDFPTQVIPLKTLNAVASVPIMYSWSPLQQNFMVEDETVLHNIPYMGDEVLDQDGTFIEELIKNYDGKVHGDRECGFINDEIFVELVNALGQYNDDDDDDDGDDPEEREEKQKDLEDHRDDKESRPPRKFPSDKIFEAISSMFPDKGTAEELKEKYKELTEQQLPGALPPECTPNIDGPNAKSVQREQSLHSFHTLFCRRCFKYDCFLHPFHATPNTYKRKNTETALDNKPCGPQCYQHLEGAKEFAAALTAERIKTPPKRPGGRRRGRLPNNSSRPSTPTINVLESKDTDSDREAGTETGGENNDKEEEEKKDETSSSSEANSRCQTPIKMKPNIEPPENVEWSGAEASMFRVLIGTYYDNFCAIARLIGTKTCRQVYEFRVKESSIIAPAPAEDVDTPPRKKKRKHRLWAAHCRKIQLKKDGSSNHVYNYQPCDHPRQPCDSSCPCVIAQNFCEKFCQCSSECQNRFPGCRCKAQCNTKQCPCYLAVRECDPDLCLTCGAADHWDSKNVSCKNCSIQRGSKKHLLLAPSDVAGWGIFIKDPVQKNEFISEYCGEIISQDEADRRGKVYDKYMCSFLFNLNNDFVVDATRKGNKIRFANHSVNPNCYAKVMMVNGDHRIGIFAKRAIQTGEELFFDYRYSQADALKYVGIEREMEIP
T1 sequence (O75530 whole entry partner): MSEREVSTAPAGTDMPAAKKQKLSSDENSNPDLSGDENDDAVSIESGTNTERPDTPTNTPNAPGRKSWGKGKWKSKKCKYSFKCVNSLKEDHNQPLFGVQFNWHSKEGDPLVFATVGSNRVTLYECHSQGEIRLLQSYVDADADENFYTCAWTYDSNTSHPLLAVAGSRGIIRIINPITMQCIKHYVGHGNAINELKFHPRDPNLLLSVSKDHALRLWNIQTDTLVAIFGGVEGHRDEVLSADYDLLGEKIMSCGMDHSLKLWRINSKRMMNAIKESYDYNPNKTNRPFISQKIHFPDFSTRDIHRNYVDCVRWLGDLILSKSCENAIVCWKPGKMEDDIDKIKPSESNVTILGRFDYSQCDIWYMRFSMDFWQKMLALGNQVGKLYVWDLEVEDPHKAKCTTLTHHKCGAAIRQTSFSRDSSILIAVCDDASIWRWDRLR
T1 sequence (Q15022 whole entry partner): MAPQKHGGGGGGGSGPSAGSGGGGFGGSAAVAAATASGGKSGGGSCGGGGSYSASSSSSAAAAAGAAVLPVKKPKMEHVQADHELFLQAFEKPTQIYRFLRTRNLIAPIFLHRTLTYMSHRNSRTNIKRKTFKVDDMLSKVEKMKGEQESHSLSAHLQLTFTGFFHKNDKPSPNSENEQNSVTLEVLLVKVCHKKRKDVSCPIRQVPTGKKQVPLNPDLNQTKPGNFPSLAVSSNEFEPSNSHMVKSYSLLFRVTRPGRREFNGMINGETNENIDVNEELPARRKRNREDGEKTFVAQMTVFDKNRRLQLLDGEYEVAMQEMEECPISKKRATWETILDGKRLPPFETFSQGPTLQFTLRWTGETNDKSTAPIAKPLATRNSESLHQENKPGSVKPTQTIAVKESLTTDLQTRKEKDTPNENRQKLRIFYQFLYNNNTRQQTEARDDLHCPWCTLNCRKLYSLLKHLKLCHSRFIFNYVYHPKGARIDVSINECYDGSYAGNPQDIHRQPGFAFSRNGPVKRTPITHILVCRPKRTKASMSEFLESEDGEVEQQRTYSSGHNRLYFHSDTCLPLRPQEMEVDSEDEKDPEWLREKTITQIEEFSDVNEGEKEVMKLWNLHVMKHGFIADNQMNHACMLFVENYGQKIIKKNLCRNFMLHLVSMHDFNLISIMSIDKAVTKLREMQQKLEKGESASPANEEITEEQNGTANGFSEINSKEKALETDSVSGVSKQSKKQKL
Protocol: Western blotting. In Extended FIG. 8b/e/g, DMSO- and EZH2i-treated cells were lysed at 95° C. for 10 minutes in Laemmli buffer (50 mM Tris-HCl [pH 6.8], 2% SDS, 5% glycerol, 2 mM DTT, 2.5 mM EDTA, 2.5 mM EGTA, 4 mM Sodium Orthovanadate, 20 mM Sodium Fluoride, protease inhibitors, phosphatase inhibitors) and proteins concentrations were measured using a Pierce BCA protein Assay Kit (Thermo Fisher Scientific, Ref: 23225/23227). 10 μg of proteins were then separated on a 4-15% Mini-PROTEAN TGX Stain-Free Gel (Bio-Rad, Ref: 4568085) at 160V. After transfer, the membrane was blocked for 1 h at room temperature in PBS pH 7.4 containing 0.1% Tween-20 and 1% milk (Regilait). Incubation anti-H3K27me3 (Dilution: 1:2000, Cell Signaling, Ref: 9733) or EZH2 (Dilution: 1:2000, Cell Signaling, Ref: 5246) or Tubulin (Dilution: 1:1000, Thermo Fisher Scientific, Ref: 31460) primary antibodies diluted in PBS pH 7.4, 0.1% Tween-20 were performed at 4° C. overnight.

[5] = test system: MDA-MB-468, BT20 and HCC38; test: Number of persister cells after EZH2i pre-treatment and 5-FU; format: cell-based, human; details: 10 days pre-treatment, then 5-FU for 21 days
Protocol: Cell lines, culture conditions and drug treatments. […] All cell lines were cultured in a humidified 5% CO2 atmosphere at 37° C., and were tested as mycoplasma negative. […] Cells were treated with 5 μM of 5-FU (Sigma, Ref: […]) alone or in combination with KDM6A/Bi or EZH2i for indicated days. […] Cell proliferation, doubling time and IC50. MDA-MB-468, HCC38 and BT20 cells were stained with Trypan Blue (Invitrogen, Ref: T10282) exclusion test, and counted using a Countess automated cell counter (Invitrogen, Ref: C10228) at indicated time of treatment (FIG. 4a and Extended FIG. 8a/d/f).

[6] = test system: MDA-MB-468 cells; test: Lineage barcode frequencies and diversity under 5-FU with EZH2i; format: cell-based, human; details: co-treatment with 5-FU, bulk lineage barcodes
Description: Lentivirus packaging and cell transduction. Lentivirus was produced by transfecting the barcode plasmids pRRL-CMV-GFP-BCv2Ascl and p8.9-QV and pVSVG into HEK293T cells as previously described^30. MDA-MB-468 cells from ATCC were infected at passage 11 with lentivirus produced from the barcode library (pRRL-CMV-GFP-BCv 2Ascl) which includes 18206 different barcodes of 20 bp of a random stretch, at a low multiplicity of infection (MOI 0.1) to minimize the number of cells marked by multiple barcodes. Three weeks after transduction, cells were sorted for GFP expression to select cells with barcode insertion, and used for drug treatment.
Bulk lineage barcode library preparation and sequencing. Lineage barcodes are recovered by isolating genomic DNA from cells of interest (NucleoSpin Tissue, Mini kit for DNA from cells and tissue, Macherey Nagel, Ref: 740952.50). From the isolated genomic DNA, barcodes are amplified with three nested PCR steps as decribed in^30 (see Extended Table 1 for primer sequence). In short, after a first specific PCR for the common region of the lineage barcodes, the amplified material was prepared for sequencing by addition of the illumina sequencing adaptaters and indexing and purification. Sequencing was done in order to obtain 50 reads, on average, per barcoded cell.
Single-cell lineage barcode extraction from 10× datasets. […] To avoid running scripts on all reads we: 1. used samtools to extract all unmapped reads from the 10× output bam file, 2. used awk to take reads with either a 3′ or 5′ 20 bp match to the constant flanking region of the barcode allowing one mismatch, 3. retained only reads with both a 10× cell barcode and 10× UMI. We then located the 20 bp match to one of the constant flanking regions allowing one mismatch (but filtered out reads where a mismatch was in the first or last base to ensure the barcode is at the expected position). We then further required a 4 bp exact match on the other side of the barcode, and then extracted the 20 bp viral barcode, read name, 10× cell barcode and 10× UMI.
To assign one viral barcode to each 10× cell barcode, we determined a consensus viral barcode for each UMI. For each position in the barcode we returned the most frequently observed base and the proportion of reads supporting this consensus. Barcodes associated with a 10× CB-UMI pair were filtered if the proportion of reads supporting a position was ≤0.5 at ≥3 positions. […]
Bulk barcode pre-processing. […] In brief, using R-3.4.0 (R Development Core Team (2019) http://www.R-project.org), raw reads were first filtered for perfect to the input index-and common-sequences using XCALIBR (https://github.com/NKI-GCF/xcalibr) and filtered against the barcode reference list. […]

[7] = test system: MDA-MB-468; test: Colony forming assay and persister cell count, 5-FU with KDM6A/Bi; format: cell-based, human
Protocol: as §1, with “serum. All cell lines were cultured in a humidified 5% CO2 atmosphere at 37° C., and were tested as mycoplasma negative.” for “serum.”
(§2) Colony forming assay. TBNC cells were plated in 6 multi-well plates at a density of 200,000 cells per well and treated with the indicated drugs for 60 days (MDA-MB-468, FIG. 5a/b and Extended FIG. 9b) or 56 days (BT20) or 50 days (HCC38) (Extended FIG. 9). Cultures were incubated in humidified 37° C. incubators with an atmosphere of 5% CO2 in air, and treated plates were monitored for growth using a microscope. At the time of maximum foci formation, colony formation was evaluated after a staining with 0.5% Crystal Violet (Sigma, ref: C 3886).

[8] = test system: BT20 and HCC38; test: Colony forming assay, 5-FU with KDM6A/Bi, additional TNBC cell lines; format: cell-based, human; details: BT20 and HCC38, 5-FU
Protocol: as §1, with “serum. All cell lines were cultured in a humidified 5% CO2 atmosphere at 37° C., and were tested as mycoplasma negative.” for “serum.”
as §2

[9] = test system: tumors in mice; test: Capecitabine and GSK-J4 treatment of mice, tumor volume and disease-free survival; format: in vivo
Protocol: FIG. 5c: Five mice were treated intraperitoneally with DMSO, five mice were treated intraperitoneally with GSK-J4 alone at a dose of 50 mg/kg, 5 d/week for 25 days. Twenty-five mice were treated orally with Capecitabine at a dose of 540 mg/kg, 5 d/week for 36 days and twenty-five mice were co-treated with Capecitabine and GSK-J4 for 36 days. Tumor volumes (mm3) were measured to follow recurrence. FIG. 5d: Disease-free survival was defined as the number of days between the observation of a complete response (relative tumor volume RTV compared to volume at onset of treatment<0.2) after the first round of Capecitabine treatment, and the appearance of a recurrent tumor (RTV>3). Statistical analysis was performed using a log-rank test.

SMILES: O=c1[nH]cc(F)c(=O)[nH]1 [5-FU, Fluorouracil]
IC50 to 5-FU of resistant cells relative to untreated population [1]: over 4 fold
cells surviving drug insult ([2]; MDA-MB-468, 5-FU, after 3 weeks): 0.01 % of the initial population
time until surviving cells started proliferating again under chemotherapy ([2]; MDA-MB-468 persister cells under 5-FU): 10 to 15 days

SMILES: CCCCCOC(=O)Nc1nc(=O)n([C@@H]2O[C@H](C)[C@@H](O)[C@H]2O)cc1F [Capecitabine]
tumor response to first round of chemotherapy [3]: mice displayed a pathological complete response (pCR), but tumors eventually recurred

EZH2 protein levels [4]: without perturbing EZH2 protein levels
H3K27me3 level [4]: erasing H3K27me3
correlation scores between lineage frequencies in 5-FU and DMSO treated population [6]: increased correlation scores
SMILES: CC[C@H](C)n1cc(C)c2c(C(=O)NCc3c(C)cc(C)[nH]c3=O)cc(-c3ccc(N4CCNCC4)nc3)cc21 [EZH2i-2]
number of persister cells [5]: increased the number of persister cells

SMILES: CCOC(=O)CCNc1cc(N2CCc3ccccc3CC2)nc(-c2ccccn2)n1 [GSK-J4]
effect when administered once persister cells have emerged ([7]; added after onset of 5-FU rather than in combination): inefficient
number of persisters at day 21 ([7]; co-treatment with 5-FU): decrease in the number of persisters
growth of persister cells under 5-FU at day 60 ([7]; co-treatment with 5-FU, colony forming assay): completely abolished the growth of persister cells
effect on untreated cancer cells ([7]; without 5-FU): no effect on untreated cancer cells
confirmation of KDM6i effects on persister cells [8]: confirmed
toxicity for the mice ([9]; GSK-J4 50 mg/kg intraperitoneally): nor was toxic for the mice
tumor progression in absence of chemotherapy ([9]; GSK-J4 alone, 50 mg/kg intraperitoneally): did not inhibit tumor progression
delay to recurrence (disease-free survival) ([9]; in combination with Capecitabine versus Capecitabine alone, n=25 each, p=4.0e-2): significantly increased the delay to recurrence

correlation scores between lineage frequencies in 5-FU and DMSO treated population [6]: no effect on lineage frequencies
SMILES: CCCc1cc(C)n(C)c(=O)c1CN(C)C(=O)c1cc(-c2ccc(N3CCN(C(C)C)CC3)nc2)cc2c1cnn2C(C)C [UNC240034]
number of persister cells [5]: no effect
